Entries after “also recorded” stand apart in the source; their conditions may differ. Peptide text beside a SMILES is read from it.
Legend:
[1] = tested on: proliferating crypts of small intestine; experiment: Crypt assay of small intestine after sub-TBI (H&E, BrdU, villi length); assay type: in vivo, mouse (Balb/c, C57BL/6)
Excerpt: Enhanced proliferation of crypts in small intestine: The epithelium of the small intestine has a rapid turnover, renewing every 3-7 days. The stem cells are located ⅓ of the way up the […] and active mitosis can be seen above growing into the villus and below, forming the crypt. There are no definitive markers available to identify the stem cells, and thus the number of these cells in each crypt are unknown. When the bowel is irradiated, the number of crypts remains constant up to a dose just below the LD50/7. Above that dose, there is a log-linear decrease in the number of crypts, usually measured at 3.5 days. […] Data from the crypt assay can be augmented with injection of BrdU. BrdU can be given to animals at one or more times after irradiation to determine the rate of proliferation and rate of elongation of villi.
FGF-P was then repeated daily for 2 days. At 80 hr post-IR, BrdU (120 mg/kg) was injected ip and 4 hours later (about 3.5 days post-IR), the mice were sacrificed and the duodenal, jejunal and ileal segments (3-4 pieces/segment) were harvested, fixed in formalin, processed in paraffin blocks, cut in transverse sections of the full segment circumference (5 μm thick) and stained with H&E or anti-BrdU following the standard immunochemistry procedure (23). The proliferating crypts were defined as containing 10 or more adjacent chromophilic non-Paneth cells and a lumen. The circumference of a transverse cross-section of the intestine was used as a unit. The number of proliferating crypts was counted in each circumference. At least 10 circumferences were scored per mouse and 4-5 mice were used to generate each data point.
The villi length of duodenum, jejunum and ileum was measured using a customized Imaging Pro program.

MCP-1, IL-6, TNFα = experiment: Plasma inflammatory molecules after sub-TBI (Luminex bead array); assay type: in vivo, mouse (Balb/c); conditions: Balb/c, 12 Gy sub-TBI, 3.5 days; FGF-P 2 mg/kg at 10 min post-IR and daily for two days
Description: Bead array technology has been developed to facilitate the study of cytokine expression profiles in normal tissues following radiation. Bead arrays have several advantages over ELISA. First, mice have a limited blood volume (0.3-0.4 ml of plasma/mouse). Each ELISA typically requires approximately 0.1 ml and thus only a limited number of assays are possible. Secondly, the time required to perform ELISAs one by one stresses the system in a large experiment and would be difficult to perform in the field in case of a radiological event. The Luminex bead array technology was used. The paired monoclonal antibodies, the highly-purified protein standards, and the more than 50 different cytokinespecific beads were purchased. In these studies, Balb/c mice received 12 Gy sub-TBI and then im injection of vehicle alone (0.2 ml of saline), FGF-P (2 mg/kg at 10 min post-IR and daily for two days), or Amifostine (200 mg/kg, either 30 min before IR, or 10 min after IR). The samples were collected 3.5 days after IR.
All three of these cytokines are associated with increased severity and progression of radiation-related inflammatory toxicity in mouse and man.

Stability of FGF-P = assay type: physicochemical
BM cells = experiment: BM cell growth in round-bottom 96 well 2 D culture (CyQUANT); assay type: cell-based, mouse (Balb/c); conditions: FGF-P 500 ng/ml
Excerpt: Survival of ARS depends on rapid reconstitution of hematopoiesis after IR-induced myelosuppression. […] However, the timing and mechanism of effect on BM stem cells is unknown. Also unclear are the number of FGFRs on hematopoietic stem cells (HSCs) and their role in reconstitution after IR. […] To characterize the effects of FGF-P on BM, the study approach was to obtain fresh BM (including both HSCs and MSCs) from Balb/c mice, and culture it under varying conditions (3 D culture or 2 D round-bottom well) in triplicate for 1-3 weeks. The BM cells were stimulated with FGF-P at different doses (as test) or with EPO, TPO, GM-CSF or native FGF2 (as a positive control). The cultures were examined using several methods including colony count, photography, CyQUANT® assay and ^3H-TdR incorporation.

platelet = experiment: Platelet aggregation after 4 Gy TBI; assay type: in vivo, mouse; conditions: day 29 after 4 Gy TBI; FGF-P right post-IR daily for 6 day; P<0.05
Excerpt: One of the major functions of platelet is to aggregate on the wounded site as first step to block the bleeding vessel. […] This recovery is statistically different (FIG. 18D P<0.05).

[2] = tested on: GI Na transport from mucosa to serosa; experiment: Electrolyte transport assay with 22Na flux (Ussing chamber); parameters: species or system mouse; conditions: after IR
Description: FGF-P improves GI function: The absorption of Na coupling with nutrition and blocking of pathogen invasion are the basic function of GI. […] To pin down the mechanism in cell/tissue level, the electrolyte transport assay with ^22Na flux was carried with Ussing chamber. […] Similarly, a “Dilution Potential” experiment was carried out and Goldman-Hodgkin-Katz (GHK) Voltage Equation used to determine relative paracellular permeability.

## CC(C)C[C@H](NC(=O)[C@H](C)NC(=O)[C@@H](NC(=O)[C@H](Cc1ccc(O)cc1)NC(=O)[C@H](Cc1c[nH]c2ccccc12)NC(=O)[C@H](CO)NC(=O)[C@H](CO)NC(=O)[C@H](Cc1ccc(O)cc1)NC(=O)[C@H](CCCCN)NC(=O)[C@H](CCCNC(=N)N)NC(=O)[C@H](CO)NC(=O)[C@H](CCCNC(=N)N)NC(=O)[C@H](Cc1ccc(O)cc1)NC(=O)[C@@H](N)CS)C(C)C)C(=O)N[C@@H](CCCCN)C(=O)N[C@@H](CCCNC(=N)N)C(=O)N[C@@H](CS)C(=O)O [FGF-P, CYRSRKYSSWYVALKRC] (H-CYRSRKYSSWYVALKRC-OH; N-terminus and C-terminus assumed)
[1]; 10.5 Gy sub-TBI, about 3.5 days post-IR, FGF-P 2 mg/kg im, repeated daily for 2 days
  numbers of proliferating crypts in the bowel: increased
[1]; 10.5 Gy sub-TBI, FGF-P 2 mg/kg im
  crypt survival: approximately doubles crypt survival
[1]; 12 Gy, P<0.05
  proliferating crypts, BrdU staining method: A similar result was obtained using the BrdU staining method
[1]; 12 Gy, duodenum, jejunum, ileum, P<0.05
  number of proliferating crypts: higher number of proliferating crypts in duodenum, jejunum and ileum
[1]; Balb/c, 3.5 days after 12 Gy, FGF-P given after irradiation
  crypt numbers in the ileum: Higher numbers of crypts
[1]; C57BL/6, 16 Gy sub-TBI, P<0.05
  villi length: better preserved villi length in the duodenum and jejunum
[1]; C57BL/6, doses as high as 16 Gy sub-TBI
  crypt numbers: improved crypt numbers in all sections of C57BL/6 small bowel
MCP-1, IL-6, TNFα
  plasma MCP-1, IL-6 and TNFα: normalized or near-normalized these factors
Stability of FGF-P; dry powder
  enzyme resistance: enzyme-resistant as a dry powder
Stability of FGF-P; severe conditions / liquid, boiling
  stability: stable as a liquid even with boiling; also recorded: stable under severe conditions, for example to boiling
Stability of FGF-P; stability test, boiled vs original form
  effectiveness of boiled FGF-P: as effective as the original form
BM cells
  growth of BM cells: stimulated the growth of BM cells in a similar pattern as TPO, EPO and GM-CSF
platelet
  platelet aggregation: recovered towards normal
[2]
  Na transport from mucosa to serosa: reversed
